Like-named read-outs stand apart in the source and are kept apart here.
How the values were obtained:
[1] = log P by HPLC on reversed-phase C18 columns (OECD Guideline 117); format: physicochemical; conditions: for chromatographic logP: reversed-phase C18 HPLC column
[2] = test system: green peach aphid (Myzus persicae); test: Myzus persicae spray test on Chinese cabbage leaf discs; format: in vivo; conditions: application rate 500 g/ha, after 6 days
Source text: Discs of Chinese cabbage leaves (Brassica pekinensis) infested by all stages of the green peach aphid (Myzus persicae) are sprayed with an active ingredient formulation of the desired concentration.

[3] = test system: green peach aphid (Myzus persicae); conditions: application rate 20 ppm, after 6 days, bell pepper plants sprayed to runoff
Experimental: Myzus persicae—Spray Test
Solvent: 7 parts by weight of dimethylformamide
Emulsifier: alkylaryl polyglycol ether
To produce an appropriate active ingredient formulation, 1 part by weight of active ingredient is dissolved using the specified parts by weight of solvent and made up with water containing an emulsifier concentration of 1000 ppm until the desired concentration is attained. To produce further test concentrations, the preparation is diluted with emulsifier-containing water. If the addition of ammonium salts or/and penetrants is required, these are each added in a concentration of 1000 ppm to the formulation solution.
After 6 days, the kill in % is determined. 100% means that all the aphids have been killed; 0% means that no aphids have been killed.

[4] = pH 2.7, HPLC RP C18, acidic range pH 2.7, 0.1% aqueous formic acid/acetonitrile, read-out: logP[a]
[5] = pH 7.8, HPLC RP C18, neutral range pH 7.8, 0.001 molar aqueous ammonium hydrogencarbonate/acetonitrile, read-out: logP[b]
[6] = HPLC RP C18, acidic range pH 2.7, 0.1% aqueous formic acid/acetonitrile
[7] = HPLC RP C18, neutral range pH 7.8, 0.001 molar aqueous ammonium hydrogencarbonate/acetonitrile

| SMILES | chromatographic logP [1, 4] | chromatographic logP [1, 5] | efficacy (aphids killed) [2] | logP[a] [1, 6] | logP[b] [1, 7] | other results |
| --- | --- | --- | --- | --- | --- | --- |
| CC(C)n1nnc2nn(-c3cccnc3)cc2c1=O [compound 36, 3-Isopropyl-6-(3-pyridyl)pyrazolo[3,4-d]triazin-4-one] | 1.72 | 1.7 | 90% |  |  |  |
| CCOC(=O)C(C#N)=CN(N=Cc1ccccc1)c1cccnc1 [VIII-1, Ethyl 3-[2-benzylidene-1-(pyridin-3-yl)hydrazino]-2-cyanoacrylate] | 2.54 | 2.48 |  |  |  |  |
| CCn1c(C)nc2nn(-c3cccnc3)cc2c1=O [compound 29, 5-Ethyl-6-methyl-2-(pyridin-3-yl)-2,5-dihydro-4H-pyrazolo[3,4-d]pyrimidin-4-one] | 0.93 | 1.03 | 90% |  |  |  |
| O=c1c2cn(-c3cccnc3)nc2ncn1-c1ccccc1 [compound 10] |  |  | 90% | 1.40 |  |  |
| CSCC(C)n1cnc2nn(-c3cccnc3)cc2c1=O (stereo not shown) [compound 31] |  |  |  | 1.36 | 1.40 | efficacy (kill) [3]: 95% |
| O=c1c2cn(-c3cccnc3)nc2ncn1CC1CC1 [compound 33] |  |  | 100% | 1.23 | 1.27 |  |
| O=c1c2cnn(-c3cccnc3)c2ncn1-c1ccccc1 [compound 2] |  |  | 90% | 1.57 |  |  |
| CCOC(=O)c1cnn(-c2cccnc2)c1N [(IIIa-1). HCOOH, ethyl 5-amino-1-(pyridin-3-yl)-1H-pyrazole-4-carboxylate] | 1.18 | 1.27 |  |  |  |  |
| Cn1cnc2c(cnn2-c2cccnc2)c1=O [compound 7] |  |  |  |  |  | logP[a] ([1]; pH 2.7): 0.58; logP[b] ([1]; pH 7.8): 0.82 |
| CCOC(=O)c1cnn(-c2ccnnc2)c1N [IIIa-3, Ethyl 5-amino-1-pyridazin-4-yl-pyrazole-4-carboxylate] | 1.12 | 1.12 |  |  |  |  |
| O=c1c2cn(-c3cccnc3)nc2ncn1C1CC1 [compound 23] |  |  | 100% | 0.79 | 0.83 |  |
| CC(F)(F)Cn1cnc2nn(-c3cccnc3)cc2c1=O [compound 24] |  |  | 100% | 1.19 | 1.21 |  |
| CN(C)C(=O)Cn1cnc2nn(-c3cccnc3)cc2c1=O [compound 22] |  |  | 90% | 0.47 | 0.51 |  |
| O=c1c2cn(-c3cccnc3)nc2ncn1CC(F)(F)F [compound 12] |  |  | 100% | 1.27 |  |  |
| C(=NNc1cccnc1)c1ccccc1 [VII-1, Benzaldehyde pyridin-3-yl hydrazone] | 0.86 | 2.22 |  |  |  |  |
| CC(C)n1cnc2nn(-c3ccnnc3)cc2c1=O [compound 38, 5-Isopropyl-2-pyridazin-4-yl-pyrazolo[3,4-d]pyrimidin-4-one] | 0.85 | 0.85 | 90% |  |  |  |
| CC(c1ccccn1)n1cnc2nn(-c3cccnc3)cc2c1=O (stereo not shown) [compound 21] |  |  | 90% | 1.13 | 1.32 |  |
| N#CC1(n2cnc3nn(-c4cccnc4)cc3c2=O)CC1 [compound 30] |  |  | 100% | 0.82 | 0.85 |  |
| CCOC(=O)Cn1cnc2nn(-c3cccnc3)cc2c1=O [compound 19] |  |  | 100% | 0.98 | 1.09 |  |
| O=c1c2cn(-c3ccccc3)nc2ncn1Cc1ncccn1 [compound 11] |  |  | 100% | 0.63 |  |  |
| CCn1c(C(F)(F)F)nc2nn(-c3cccnc3)cc2c1=O [compound 32, 5-Ethyl-2-(pyridin-3-yl)-6-(trifluoromethyl)-2,5-dihydro-4H-pyrazolo[3,4-d]pyrimidin-4-one] | 2.07 | 2.06 |  |  |  |  |
| CC(C)n1cnc2c(cnn2-c2cccnc2)c1=O [compound 1] |  |  |  |  |  | logP[a] ([1]; pH 2.7): 1.31 |
| CC(C)(C)Cn1cnc2nn(-c3cccnc3)cc2c1=O [compound 34] |  |  | 100% | 1.70 | 1.71 |  |
| Cn1cnc2c(cnn2-c2cncnc2)c1=O [compound 8, 5-Methyl-1-(pyrimidin-5-yl)-1,5-dihydro-4H-pyrazolo[3,4-d]pyrimidin-4-one] | 0.55 | 0.55 |  |  |  |  |

| SMILES | chromatographic logP [1, 4] | chromatographic logP [1, 5] | efficacy (aphids killed) [2] | logP[a] [1, 6] | logP[b] [1, 7] | other results |
| --- | --- | --- | --- | --- | --- | --- |
| CCOC(=O)c1cnn(-c2cccnc2)c1N [IIIa-1, Ethyl 5-amino-1-(pyridin-3-yl)-1H-pyrazole-4-carboxylate] |  |  |  | 1.10 |  |  |
| CC(C)NC(=O)c1cn(-c2ccnnc2)nc1N [IIb-3-1, 3-Amino-N-isopropyl-1-pyridazin-4-yl-pyrazole-4-carboxamide] | 0.74 | 0.74 |  |  |  |  |
| CCOC(=O)c1cnn(-c2cncnc2)c1N [IIIa-2, Ethyl 5-amino-1-(pyrimidin-5-yl)-1H-pyrazole-4-carboxylate] | 1.16 | 1.12 |  |  |  |  |
| CCNC(=O)c1cn(-c2cccnc2)nc1N [IIb-1-1, 3-Amino-N-ethyl-1-(pyridin-3-yl)-1H-pyrazole-4-carboxamide] | 0.45 | 0.77 |  |  |  |  |
| CCn1cnc2nn(-c3cccnc3)cc2c1=O [compound 9] |  |  |  | 0.80 |  |  |
| CCOC(=O)c1cn(-c2cccnc2)nc1N [IIIb-1, Ethyl 3-amino-1-(pyridin-3-yl)-1H-pyrazole-4-carboxylate] | 1.12 | 1.32 |  |  |  |  |
| CCn1cnc2nn(-c3cccnc3)cc2c1=O [compound 16, 5-Ethyl-2-(pyridin-3-yl)-2,5-dihydro-4H-pyrazolo[3,4-d]pyrimidin-4-one] | 0.7 | 0.84 | 100% |  |  |  |
| Cn1cnc2nn(-c3cccnc3)cc2c1=O [compound 18] |  |  | 100% | 0.45 | 0.52 |  |
| CC(C)n1cnc2nn(-c3cccnc3)cc2c1=O [compound 15, 5-Isopropyl-2-(pyridin-3-yl)-2,5-dihydro-4H-pyrazolo[3,4-d]pyrimidin-4-one] | 1.06 | 1.12 | 100% |  |  |  |
| O=c1c2cnn(-c3cccnc3)c2ncn1CC(F)(F)F [compound 3] |  |  | 100% |  |  | logP[a] ([1]; pH 2.7): 1.48 |
| CCn1cnc2c(cnn2-c2cccnc2)c1=O [compound 6, 5-Ethyl-1-(pyridin-3-yl)-1,5-dihydro-4H-pyrazolo[3,4-d]pyrimidin-4-one] | 0.98 | 1.15 |  |  |  |  |
| CNC(=O)c1cnn(-c2cncnc2)c1N [IIb-2-1, 5-Amino-N-methyl-1-(pyrimidin-5-yl)-1H-pyrazole-4-carboxamide] | 0.18 | -0.01 |  |  |  |  |
| CC(C)n1cnc2nn(-c3cncnc3)cc2c1=O [compound 37] |  |  | 100% |  |  | logP[a] ([1]; pH 2.7): 0.93; logP[b] ([1]; pH 7.8): 0.92 |
| CSCCn1cnc2nn(-c3cccnc3)cc2c1=O [compound 27] |  |  |  | 1.13 | 1.19 | efficacy (kill) [3]: 90% |
| O=c1c2cnn(-c3cccnc3)c2ncn1Cc1ncccn1 [compound 5] |  |  | 90% |  |  | logP[a] ([1]; pH 2.7): 0.80; logP[b] ([1]; pH 7.8): 0.91 |
| CCNC(=O)c1cnn(-c2cccnc2)c1N [IIa-1-1, 5-Amino-N-ethyl-1-(pyridin-3-yl)-1H-pyrazole-4-carboxamide] | 0.5 | 0.56 |  |  |  |  |
| O=c1c2cn(-c3cccnc3)nc2ncn1CC1CCCO1 (stereo not shown) [compound 17] |  |  | 100% | 1.07 | 1.12 |  |
| CCOC(=O)c1cn(-c2cncnc2)nc1N [IIIb-2, ethyl 3-amino-1-(pyrimidin-5-yl)-1H-pyrazole-4-carboxylate] | 1.12 | 1.08 |  |  |  |  |
| Cc1nc2nn(-c3cccnc3)cc2c(=O)n1C(C)C [compound 28] |  |  | 90% | 1.28 | 1.35 |  |
| Cc1ccc(-n2cnc3nn(-c4cccnc4)cc3c2=O)cc1 [compound 39] |  |  | 100% | 1.73 | 1.73 |  |
| O=c1c2cn(-c3cccnc3)nc2ncn1CC(F)F [compound 25] |  |  | 100% | 0.91 | 0.96 |  |
| CCOC(=O)c1cn(-c2ccnnc2)nc1N [IIIb-3, ethyl 3-amino-1-pyridazin-4-yl-pyrazole-4-carboxylate] | 0.9 | 0.94 |  |  |  |  |
| CC(C)NC(=O)c1cn(-c2cccnc2)nc1N [IIb-1-2, 3-Amino-N-isopropyl-1-(pyridin-3-yl)-1H-pyrazole-4-carboxamide] | 0.82 | 1.05 |  |  |  |  |
| O=c1c2cnn(-c3cccnc3)c2ncn1-c1ccc(Cl)cc1 [compound 4] |  |  | 90% | 2.04 |  |  |
